SMILES strings stand for the structures. Some results are limits rather than exact numbers.

Sequence of 5-HT1B (P28222 whole entry, species assumed): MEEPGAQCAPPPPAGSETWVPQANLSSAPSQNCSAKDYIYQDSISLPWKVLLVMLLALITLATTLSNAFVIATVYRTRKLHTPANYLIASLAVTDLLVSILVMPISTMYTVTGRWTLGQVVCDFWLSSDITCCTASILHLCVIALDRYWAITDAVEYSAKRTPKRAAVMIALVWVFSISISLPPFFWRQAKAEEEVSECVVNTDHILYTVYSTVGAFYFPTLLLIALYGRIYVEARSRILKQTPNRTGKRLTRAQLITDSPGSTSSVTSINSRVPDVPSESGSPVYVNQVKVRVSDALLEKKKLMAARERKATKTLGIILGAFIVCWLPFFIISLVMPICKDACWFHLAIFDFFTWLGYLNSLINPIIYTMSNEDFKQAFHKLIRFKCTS

In the first assay the target is 5-HT1D (Homo sapiens, UniProt P28221). The assay can be described thus: Competitive radioligand binding (NIMH PDSP).
Sequence of 5-HT1D (P28221 whole entry, species assumed): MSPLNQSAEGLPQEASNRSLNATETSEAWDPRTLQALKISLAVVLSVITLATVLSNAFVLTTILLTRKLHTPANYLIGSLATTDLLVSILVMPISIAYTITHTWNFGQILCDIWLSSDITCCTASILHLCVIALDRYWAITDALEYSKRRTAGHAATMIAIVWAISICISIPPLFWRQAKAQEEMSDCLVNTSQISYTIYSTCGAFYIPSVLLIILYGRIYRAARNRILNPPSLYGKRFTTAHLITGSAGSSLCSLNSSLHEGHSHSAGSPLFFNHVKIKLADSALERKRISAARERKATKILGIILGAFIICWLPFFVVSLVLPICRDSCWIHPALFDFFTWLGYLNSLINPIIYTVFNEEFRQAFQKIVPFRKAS
Conditions: not given
As to the method: (§1) Method 1: Competitive binding experiments were performed by the National Institute of Mental Health Psychoactive Drug Screening Program (NIMH PDSP) using described methods or 5-HT2A experiments performed using [3H]-ketanserin displacement in human 5-HT2A expressing membranes. Target compounds were dissolved in DMSO and an initial screen performed to assess displacement of the radioligand from target receptors at a concentration of 10,000 nM. […] For the Ki experiments, compounds were always tested in triplicate on separate plates. Each plate also contained a known ligand for the receptor as a positive control.
Compound `COc1cc([N+](=O)[O-])c(OC)cc1CCNCc1cccc(C)c1` [25N-NB-3-Me (22), [2-(2,5-dimethoxy-4-nitrophenyl)ethyl][(3-methylphenyl)methyl]amine] gave a Ki of 933 nM.
As for `COc1cc([N+](=O)[O-])c(OC)cc1CCNCc1cccc(O)c1` [25N-NB-3-OH (21), 3-({[2-(2,5-dimethoxy-4-nitrophenyl)ethyl]amino}methyl)phenol], the Ki is over 10000 nM.

A further assay has as its target 5-HT1B (Homo sapiens, UniProt P28222). The assay can be described thus: Competitive radioligand binding (NIMH PDSP).
Conditions: not given
As to the method: as §1
Regarding `COc1cc([N+](=O)[O-])c(OC)cc1CCNCc1cccc(C)c1` [25N-NB-3-Me (22), [2-(2,5-dimethoxy-4-nitrophenyl)ethyl][(3-methylphenyl)methyl]amine], the Ki is over 10000 nM.
The same measure, in the same setting: under `COc1cc([N+](=O)[O-])c(OC)cc1CCNCc1cccc(O)c1` [25N-NB-3-OH (21), 3-({[2-(2,5-dimethoxy-4-nitrophenyl)ethyl]amino}methyl)phenol] stands over 10000 nM.

The target in another assay is 5-HT1e (Homo sapiens, UniProt P28566). The experiment in a line: Competitive radioligand binding (NIMH PDSP).
Sequence of 5-HT1e (P28566 whole entry, species assumed): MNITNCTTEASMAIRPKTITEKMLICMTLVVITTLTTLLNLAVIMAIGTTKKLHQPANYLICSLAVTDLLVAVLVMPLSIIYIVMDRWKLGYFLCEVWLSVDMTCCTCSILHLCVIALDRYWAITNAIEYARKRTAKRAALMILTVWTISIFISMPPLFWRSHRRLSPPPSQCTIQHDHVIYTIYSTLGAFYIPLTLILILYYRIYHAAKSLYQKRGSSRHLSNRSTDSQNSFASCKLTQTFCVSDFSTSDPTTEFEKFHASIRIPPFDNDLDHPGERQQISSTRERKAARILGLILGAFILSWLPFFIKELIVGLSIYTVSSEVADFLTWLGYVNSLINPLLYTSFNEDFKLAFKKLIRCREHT
Conditions: not given
As to the method: as §1
In the case of `COc1cc([N+](=O)[O-])c(OC)cc1CCNCc1cccc(C)c1` [25N-NB-3-Me (22), [2-(2,5-dimethoxy-4-nitrophenyl)ethyl][(3-methylphenyl)methyl]amine], the Ki is over 10000 nM.
Still for that read-out and setting: under `COc1cc([N+](=O)[O-])c(OC)cc1CCNCc1cccc(O)c1` [25N-NB-3-OH (21), 3-({[2-(2,5-dimethoxy-4-nitrophenyl)ethyl]amino}methyl)phenol] stands over 10000 nM.

In another assay the target is T1, 5-HT1A (Homo sapiens, UniProt P08908).
T1 sequence (P08908 1-422): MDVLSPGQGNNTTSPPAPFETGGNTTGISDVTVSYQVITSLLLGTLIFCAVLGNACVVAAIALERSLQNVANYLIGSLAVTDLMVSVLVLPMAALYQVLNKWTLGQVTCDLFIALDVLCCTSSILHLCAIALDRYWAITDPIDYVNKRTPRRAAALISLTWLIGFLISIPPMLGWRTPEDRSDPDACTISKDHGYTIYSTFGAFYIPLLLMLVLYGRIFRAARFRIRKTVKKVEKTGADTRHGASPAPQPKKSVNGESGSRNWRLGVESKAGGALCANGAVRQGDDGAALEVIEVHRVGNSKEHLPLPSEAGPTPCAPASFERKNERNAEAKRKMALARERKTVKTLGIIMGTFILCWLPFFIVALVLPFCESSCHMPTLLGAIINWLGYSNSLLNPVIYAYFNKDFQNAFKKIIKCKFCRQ
The assay can be described thus: Competitive radioligand binding (NIMH PDSP).
Conditions: not given
As to the method:
as §1
Consider `COc1cc([N+](=O)[O-])c(OC)cc1CCNCc1cccc(C)c1` [25N-NB-3-Me (22), [2-(2,5-dimethoxy-4-nitrophenyl)ethyl][(3-methylphenyl)methyl]amine], for which the affinity, expressed as Ki, was 1780 nM. This lies in the single-digit micromolar range.
Consider `COc1cc([N+](=O)[O-])c(OC)cc1CCNCc1cccc(O)c1` [25N-NB-3-OH (21), 3-({[2-(2,5-dimethoxy-4-nitrophenyl)ethyl]amino}methyl)phenol], for which the affinity corresponds to a Ki of 1860 nM. This Ki and that of the compound before are within 1.5-fold of each other.

The next assay deals with T2, 5-HT2A (Homo sapiens, UniProt P28223). The experiment in a line: Competitive radioligand binding (NIMH PDSP).
T2 sequence (P28223 whole entry): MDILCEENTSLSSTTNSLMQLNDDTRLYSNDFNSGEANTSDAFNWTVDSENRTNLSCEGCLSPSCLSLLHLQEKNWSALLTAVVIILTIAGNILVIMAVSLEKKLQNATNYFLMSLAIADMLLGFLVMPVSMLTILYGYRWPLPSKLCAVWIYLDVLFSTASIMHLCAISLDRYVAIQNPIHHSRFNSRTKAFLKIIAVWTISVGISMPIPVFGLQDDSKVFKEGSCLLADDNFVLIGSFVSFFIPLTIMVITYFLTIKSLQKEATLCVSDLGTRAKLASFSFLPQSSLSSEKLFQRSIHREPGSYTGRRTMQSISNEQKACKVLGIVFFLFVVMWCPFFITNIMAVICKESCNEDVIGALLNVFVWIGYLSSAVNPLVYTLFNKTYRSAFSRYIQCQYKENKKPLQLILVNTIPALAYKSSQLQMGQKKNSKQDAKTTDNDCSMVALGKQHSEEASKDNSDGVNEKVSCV
Conditions: not given
As to the method:
as §1
`COc1cc([N+](=O)[O-])c(OC)cc1CCNCc1cccc(C)c1` [25N-NB-3-Me (22), [2-(2,5-dimethoxy-4-nitrophenyl)ethyl][(3-methylphenyl)methyl]amine] gave a Ki of 0.209 nM.
The compound `COc1cc([N+](=O)[O-])c(OC)cc1CCNCc1cccc(O)c1` [25N-NB-3-OH (21), 3-({[2-(2,5-dimethoxy-4-nitrophenyl)ethyl]amino}methyl)phenol] gave a Ki of 14.5 nM. Against the preceding compound, the Ki is about 69-fold higher.

In a further assay the target is T3, 5-HT3 (Homo sapiens, UniProt P46098).
T3 sequence (P46098 24-478): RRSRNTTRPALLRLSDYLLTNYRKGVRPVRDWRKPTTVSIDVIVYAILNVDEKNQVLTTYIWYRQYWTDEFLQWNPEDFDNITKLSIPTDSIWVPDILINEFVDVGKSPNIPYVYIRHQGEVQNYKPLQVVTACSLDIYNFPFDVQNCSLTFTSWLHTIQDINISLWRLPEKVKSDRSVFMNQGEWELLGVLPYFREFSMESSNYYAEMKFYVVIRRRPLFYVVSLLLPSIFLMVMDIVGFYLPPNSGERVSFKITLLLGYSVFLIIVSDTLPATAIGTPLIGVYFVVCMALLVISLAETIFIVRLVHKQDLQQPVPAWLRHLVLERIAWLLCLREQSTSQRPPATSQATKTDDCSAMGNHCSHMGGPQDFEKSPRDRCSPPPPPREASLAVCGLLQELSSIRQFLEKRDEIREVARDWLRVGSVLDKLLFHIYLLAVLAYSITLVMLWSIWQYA
The assay can be described thus: Competitive radioligand binding (NIMH PDSP).
Conditions: not given
As to the method: as §1
On to `COc1cc([N+](=O)[O-])c(OC)cc1CCNCc1cccc(C)c1` [25N-NB-3-Me (22), [2-(2,5-dimethoxy-4-nitrophenyl)ethyl][(3-methylphenyl)methyl]amine], for which the Ki was over 10000 nM.
Same read-out and setting: under `COc1cc([N+](=O)[O-])c(OC)cc1CCNCc1cccc(O)c1` [25N-NB-3-OH (21), 3-({[2-(2,5-dimethoxy-4-nitrophenyl)ethyl]amino}methyl)phenol] stands over 10000 nM.

Another assay relates to 5-HT2A. The assay can be described thus: Ca2+ flux assay, 5-HT2A. Format: cell-based, human. Particulars: Gq/11 Ca2+ mobilization; higher number = skewed towards 5-HT2A. On the technique in general: A change in cytosolic calcium serves as a functional read-out for many receptors and channels.
With `COc1cc([N+](=O)[O-])c(OC)cc1CCNCc1cccc(C)c1` [25N-NB-3-Me (22), [2-(2,5-dimethoxy-4-nitrophenyl)ethyl][(3-methylphenyl)methyl]amine], the “5-HT2A/5-HT2c Selectivity Factor ΔLog(Emax/EC50)” value is on record as 29.1.
On the same count and under the same terms, to `COc1cc([N+](=O)[O-])c(OC)cc1CCNCc1cccc(O)c1` [25N-NB-3-OH (21), 3-({[2-(2,5-dimethoxy-4-nitrophenyl)ethyl]amino}methyl)phenol] belongs 92.6.

The next assay deals with T4, 5-HT2B (Homo sapiens, UniProt P41595). The assay can be described thus: Ca2+ flux assay, 5-HT2B. It counts as cell-based. Also on record: expressed in transfected cells. The settings on record: Ca2+ flux.
T4 sequence (P41595 whole entry): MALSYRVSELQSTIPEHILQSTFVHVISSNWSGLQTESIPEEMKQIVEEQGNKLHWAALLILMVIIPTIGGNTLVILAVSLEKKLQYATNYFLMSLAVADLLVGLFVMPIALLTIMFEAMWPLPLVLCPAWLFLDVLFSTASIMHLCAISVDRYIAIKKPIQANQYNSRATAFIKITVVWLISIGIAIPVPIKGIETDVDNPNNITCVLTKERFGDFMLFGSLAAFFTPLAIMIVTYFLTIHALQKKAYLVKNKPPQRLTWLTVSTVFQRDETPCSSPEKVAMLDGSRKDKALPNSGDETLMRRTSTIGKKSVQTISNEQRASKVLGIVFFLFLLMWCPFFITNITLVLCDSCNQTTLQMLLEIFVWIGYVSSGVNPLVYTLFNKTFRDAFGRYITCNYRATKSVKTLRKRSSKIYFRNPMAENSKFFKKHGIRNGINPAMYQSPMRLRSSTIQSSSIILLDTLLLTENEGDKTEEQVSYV
As for `COc1cc([N+](=O)[O-])c(OC)cc1CCNCc1cccc(C)c1` [25N-NB-3-Me (22), [2-(2,5-dimethoxy-4-nitrophenyl)ethyl][(3-methylphenyl)methyl]amine], the “5-HT2B EC50, nM” value is reported as “No activity”.
For `COc1cc([N+](=O)[O-])c(OC)cc1CCNCc1cccc(O)c1` [25N-NB-3-OH (21), 3-({[2-(2,5-dimethoxy-4-nitrophenyl)ethyl]amino}methyl)phenol], the “5-HT2B EC50, nM” value is “No activity”.

Still in this assay, the particulars now being: read-out: 5-HT2B Emax % 5-HT; Ca2+ flux.
`COc1cc([N+](=O)[O-])c(OC)cc1CCNCc1cccc(C)c1` [25N-NB-3-Me (22), [2-(2,5-dimethoxy-4-nitrophenyl)ethyl][(3-methylphenyl)methyl]amine]: the Emax was under 10%.
On the same count and under the same terms, to `COc1cc([N+](=O)[O-])c(OC)cc1CCNCc1cccc(O)c1` [25N-NB-3-OH (21), 3-({[2-(2,5-dimethoxy-4-nitrophenyl)ethyl]amino}methyl)phenol] belongs under 10%.

A further assay concerns the target T2, 5-HT2A. The experiment in a line: Ca2+ flux assay, 5-HT2A. Format: cell-based. Also on record: expressed in transfected cells. Particulars: 5-HT2A EC50, nM, Ca2+ flux.
In turn, `COc1cc([N+](=O)[O-])c(OC)cc1CCNCc1cccc(C)c1` [25N-NB-3-Me (22), [2-(2,5-dimethoxy-4-nitrophenyl)ethyl][(3-methylphenyl)methyl]amine] showed an EC50 of 2.27 nM.
Still for that read-out and setting: to `COc1cc([N+](=O)[O-])c(OC)cc1CCNCc1cccc(O)c1` [25N-NB-3-OH (21), 3-({[2-(2,5-dimethoxy-4-nitrophenyl)ethyl]amino}methyl)phenol] belongs 3.32 nM.

The assay is the same for the next values; noted with them: read-out: 5-HT2A Emax % 5-HT, Ca2+ flux.
As to `COc1cc([N+](=O)[O-])c(OC)cc1CCNCc1cccc(C)c1` [25N-NB-3-Me (22), [2-(2,5-dimethoxy-4-nitrophenyl)ethyl][(3-methylphenyl)methyl]amine], the maximal effect (Emax) was 54 ± 1%.
On the same count and under the same terms, to `COc1cc([N+](=O)[O-])c(OC)cc1CCNCc1cccc(O)c1` [25N-NB-3-OH (21), 3-({[2-(2,5-dimethoxy-4-nitrophenyl)ethyl]amino}methyl)phenol] belongs 55 ± 2%.

For the next assay, the target named is T5, 5-HT2C (Homo sapiens, UniProt P28335).
T5 sequence (P28335 33-458): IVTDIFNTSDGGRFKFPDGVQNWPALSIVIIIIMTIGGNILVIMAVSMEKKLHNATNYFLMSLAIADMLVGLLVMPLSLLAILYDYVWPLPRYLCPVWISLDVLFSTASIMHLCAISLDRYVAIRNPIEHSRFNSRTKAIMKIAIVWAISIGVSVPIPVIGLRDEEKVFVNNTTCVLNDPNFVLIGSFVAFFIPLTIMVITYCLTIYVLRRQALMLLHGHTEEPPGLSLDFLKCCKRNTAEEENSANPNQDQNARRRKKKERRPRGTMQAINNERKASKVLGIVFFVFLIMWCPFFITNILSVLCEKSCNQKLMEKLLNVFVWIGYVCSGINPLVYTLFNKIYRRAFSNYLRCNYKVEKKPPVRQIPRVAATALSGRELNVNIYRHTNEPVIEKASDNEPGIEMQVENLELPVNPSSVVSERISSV
The experiment in a line: Competitive radioligand binding (NIMH PDSP). Also noted: expressed in transfected cells.
Conditions: not given
As to the method: as §1
As to `COc1cc([N+](=O)[O-])c(OC)cc1CCNCc1cccc(C)c1` [25N-NB-3-Me (22), [2-(2,5-dimethoxy-4-nitrophenyl)ethyl][(3-methylphenyl)methyl]amine], affinity was put at a Ki of 39.8 nM.
The same measure, in the same setting: to `COc1cc([N+](=O)[O-])c(OC)cc1CCNCc1cccc(O)c1` [25N-NB-3-OH (21), 3-({[2-(2,5-dimethoxy-4-nitrophenyl)ethyl]amino}methyl)phenol] belongs 83.2 nM.

A further assay concerns the target T4, 5-HT2B. The experiment in a line: Competitive radioligand binding (NIMH PDSP).
Conditions: not given
Also noted: expressed in transfected cells. As to the method:
as §1
With `COc1cc([N+](=O)[O-])c(OC)cc1CCNCc1cccc(C)c1` [25N-NB-3-Me (22), [2-(2,5-dimethoxy-4-nitrophenyl)ethyl][(3-methylphenyl)methyl]amine], affinity was put at a Ki of 2.88 nM.
Take `COc1cc([N+](=O)[O-])c(OC)cc1CCNCc1cccc(O)c1` [25N-NB-3-OH (21), 3-({[2-(2,5-dimethoxy-4-nitrophenyl)ethyl]amino}methyl)phenol]: the affinity corresponds to a Ki of 35.5 nM.

The target of the next assay is T5, 5-HT2C. The experiment in a line: Ca2+ flux assay, 5-HT2C. Format: cell-based. Also on record: expressed in transfected cells. The settings on record: 5-HT2C EC50, nM.
In the case of `COc1cc([N+](=O)[O-])c(OC)cc1CCNCc1cccc(C)c1` [25N-NB-3-Me (22), [2-(2,5-dimethoxy-4-nitrophenyl)ethyl][(3-methylphenyl)methyl]amine], the EC50 came out at 14.3 nM.
Still for that read-out and setting: to `COc1cc([N+](=O)[O-])c(OC)cc1CCNCc1cccc(O)c1` [25N-NB-3-OH (21), 3-({[2-(2,5-dimethoxy-4-nitrophenyl)ethyl]amino}methyl)phenol] belongs 49.1 nM.

The assay is the same for the next values; noted with them: read-out: 5-HT2C Emax % 5-HT.
As for `COc1cc([N+](=O)[O-])c(OC)cc1CCNCc1cccc(C)c1` [25N-NB-3-Me (22), [2-(2,5-dimethoxy-4-nitrophenyl)ethyl][(3-methylphenyl)methyl]amine], the Emax stood at 15 ± 2%.
As for `COc1cc([N+](=O)[O-])c(OC)cc1CCNCc1cccc(O)c1` [25N-NB-3-OH (21), 3-({[2-(2,5-dimethoxy-4-nitrophenyl)ethyl]amino}methyl)phenol], the Emax stood at 53 ± 4%.

The Ki is the dissociation constant of the complex between target and ligand, obtained from inhibition or displacement. High values mean lower affinity, low ones higher affinity. By Emax is commonly meant the greatest response seen or fitted, relative to the assay's reference. By EC50 is commonly meant the concentration at which the effect is half-maximal.

The values are drawn from patent US20240254087A1, “SELECTIVE, PARTIAL, AND ARRESTIN-BIASED 5-HT2A AGONISTS WITH UTILITY IN VARIOUS DISORDERS” (Saint Joseph's University, priority 2021, published 2024).
